Source: US11007270B2, “Polymer-semaxanib moiety conjugates” (Nektar Therapeutics, priority 2010, dated 2021)
Values joined by “and” are separate entries in the source; they are usually repeats but may differ in a detail not shown here. Equal entries are not always repeated. Where two headings read alike, the source gives them in different places.

What was measured:
c-Kit = c-Kit (Homo sapiens, UniProt P10721); experiment: c-Kit tyrosine kinase inhibition, Caliper screening (fluorescent substrate phosphorylation, electrophoretic separation); format: biochemical; conditions: for IC50: averages of replicate wells; for c-Kit Fold: fold of IC50 relative to sunitinib
VEGFR-2 = VEGFR-2 (Homo sapiens, UniProt P35968); experiment: VEGFR-2 kinase inhibition, Caliper screening (fluorescent substrate phosphorylation, electrophoretic separation)
RET = RET (Homo sapiens, UniProt P07949); experiment: RET kinase inhibition, Caliper screening (fluorescent substrate phosphorylation, electrophoretic separation); conditions: for RET Fold: fold of IC50 relative to sunitinib
[1] = concentration 1.0E−05 (unit not given)
[2] = concentration 1.0E−06 (unit not given)
[3] = concentration 1.0E−07 (unit not given)
[4] = concentration 1.0E−08 (unit not given)
[5] = concentration 1.0E−09 (unit not given)
[6] = concentration 1.0E−10 (unit not given)
[7] = concentration 3.0E−05 (unit not given)
[8] = concentration 3.0E−06 (unit not given)
[9] = concentration 3.0E−07 (unit not given)
[10] = concentration 3.0E−08 (unit not given)
[11] = concentration 3.0E−09 (unit not given)
[12] = concentration 3.0E−10 (unit not given)

Sequence of RET (P07949 29-1114, species assumed): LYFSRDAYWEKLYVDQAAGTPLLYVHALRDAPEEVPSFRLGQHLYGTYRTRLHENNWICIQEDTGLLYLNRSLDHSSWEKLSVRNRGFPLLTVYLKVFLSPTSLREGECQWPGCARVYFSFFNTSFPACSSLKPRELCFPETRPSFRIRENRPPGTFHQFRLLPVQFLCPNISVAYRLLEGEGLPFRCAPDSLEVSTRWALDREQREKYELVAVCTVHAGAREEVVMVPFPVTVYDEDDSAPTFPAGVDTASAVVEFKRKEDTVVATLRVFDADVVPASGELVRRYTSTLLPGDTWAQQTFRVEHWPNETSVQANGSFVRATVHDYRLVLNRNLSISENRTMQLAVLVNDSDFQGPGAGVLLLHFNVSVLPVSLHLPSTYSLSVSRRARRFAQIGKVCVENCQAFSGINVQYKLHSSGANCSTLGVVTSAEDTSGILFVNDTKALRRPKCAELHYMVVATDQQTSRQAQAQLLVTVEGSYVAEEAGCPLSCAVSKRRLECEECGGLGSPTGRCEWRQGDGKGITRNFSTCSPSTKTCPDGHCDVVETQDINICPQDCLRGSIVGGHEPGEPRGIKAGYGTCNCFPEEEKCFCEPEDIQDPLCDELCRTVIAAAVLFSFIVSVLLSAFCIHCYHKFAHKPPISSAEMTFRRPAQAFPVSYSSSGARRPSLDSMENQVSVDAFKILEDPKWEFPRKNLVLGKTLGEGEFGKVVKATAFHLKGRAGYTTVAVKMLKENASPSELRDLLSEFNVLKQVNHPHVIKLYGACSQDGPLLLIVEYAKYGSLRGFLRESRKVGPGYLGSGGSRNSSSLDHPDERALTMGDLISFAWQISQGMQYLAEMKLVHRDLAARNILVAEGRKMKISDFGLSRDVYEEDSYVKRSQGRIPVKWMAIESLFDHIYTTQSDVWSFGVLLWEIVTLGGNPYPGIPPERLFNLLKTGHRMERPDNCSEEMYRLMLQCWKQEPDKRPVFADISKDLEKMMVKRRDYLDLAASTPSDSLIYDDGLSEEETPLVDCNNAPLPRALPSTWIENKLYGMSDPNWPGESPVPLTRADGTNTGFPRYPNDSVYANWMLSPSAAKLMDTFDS
Sequence of c-Kit (P10721 26-976): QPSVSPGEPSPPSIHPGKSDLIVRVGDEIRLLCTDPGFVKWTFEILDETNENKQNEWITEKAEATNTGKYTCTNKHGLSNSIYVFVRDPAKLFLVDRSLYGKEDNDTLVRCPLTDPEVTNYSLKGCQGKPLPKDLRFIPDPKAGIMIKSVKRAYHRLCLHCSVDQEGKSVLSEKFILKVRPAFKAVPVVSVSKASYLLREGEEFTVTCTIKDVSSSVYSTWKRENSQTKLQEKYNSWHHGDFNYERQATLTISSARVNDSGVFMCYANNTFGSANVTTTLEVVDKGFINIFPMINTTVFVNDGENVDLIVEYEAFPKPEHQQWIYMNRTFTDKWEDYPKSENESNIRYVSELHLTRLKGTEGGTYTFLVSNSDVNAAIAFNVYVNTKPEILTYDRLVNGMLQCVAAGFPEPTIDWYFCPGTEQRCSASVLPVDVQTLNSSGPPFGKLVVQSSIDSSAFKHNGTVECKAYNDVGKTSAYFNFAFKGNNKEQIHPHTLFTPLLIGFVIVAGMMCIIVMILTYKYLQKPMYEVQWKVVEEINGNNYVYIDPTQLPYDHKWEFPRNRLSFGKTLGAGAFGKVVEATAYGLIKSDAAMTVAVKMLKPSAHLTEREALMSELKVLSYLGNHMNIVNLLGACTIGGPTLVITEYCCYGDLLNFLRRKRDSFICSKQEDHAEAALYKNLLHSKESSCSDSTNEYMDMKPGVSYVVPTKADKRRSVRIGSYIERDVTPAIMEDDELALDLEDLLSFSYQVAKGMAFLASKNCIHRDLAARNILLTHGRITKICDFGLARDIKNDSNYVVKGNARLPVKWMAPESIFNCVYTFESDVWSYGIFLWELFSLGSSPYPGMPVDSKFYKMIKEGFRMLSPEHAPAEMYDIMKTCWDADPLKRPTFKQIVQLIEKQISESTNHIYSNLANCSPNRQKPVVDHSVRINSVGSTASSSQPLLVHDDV
Sequence of VEGFR-2 (P35968 20-1356, species assumed): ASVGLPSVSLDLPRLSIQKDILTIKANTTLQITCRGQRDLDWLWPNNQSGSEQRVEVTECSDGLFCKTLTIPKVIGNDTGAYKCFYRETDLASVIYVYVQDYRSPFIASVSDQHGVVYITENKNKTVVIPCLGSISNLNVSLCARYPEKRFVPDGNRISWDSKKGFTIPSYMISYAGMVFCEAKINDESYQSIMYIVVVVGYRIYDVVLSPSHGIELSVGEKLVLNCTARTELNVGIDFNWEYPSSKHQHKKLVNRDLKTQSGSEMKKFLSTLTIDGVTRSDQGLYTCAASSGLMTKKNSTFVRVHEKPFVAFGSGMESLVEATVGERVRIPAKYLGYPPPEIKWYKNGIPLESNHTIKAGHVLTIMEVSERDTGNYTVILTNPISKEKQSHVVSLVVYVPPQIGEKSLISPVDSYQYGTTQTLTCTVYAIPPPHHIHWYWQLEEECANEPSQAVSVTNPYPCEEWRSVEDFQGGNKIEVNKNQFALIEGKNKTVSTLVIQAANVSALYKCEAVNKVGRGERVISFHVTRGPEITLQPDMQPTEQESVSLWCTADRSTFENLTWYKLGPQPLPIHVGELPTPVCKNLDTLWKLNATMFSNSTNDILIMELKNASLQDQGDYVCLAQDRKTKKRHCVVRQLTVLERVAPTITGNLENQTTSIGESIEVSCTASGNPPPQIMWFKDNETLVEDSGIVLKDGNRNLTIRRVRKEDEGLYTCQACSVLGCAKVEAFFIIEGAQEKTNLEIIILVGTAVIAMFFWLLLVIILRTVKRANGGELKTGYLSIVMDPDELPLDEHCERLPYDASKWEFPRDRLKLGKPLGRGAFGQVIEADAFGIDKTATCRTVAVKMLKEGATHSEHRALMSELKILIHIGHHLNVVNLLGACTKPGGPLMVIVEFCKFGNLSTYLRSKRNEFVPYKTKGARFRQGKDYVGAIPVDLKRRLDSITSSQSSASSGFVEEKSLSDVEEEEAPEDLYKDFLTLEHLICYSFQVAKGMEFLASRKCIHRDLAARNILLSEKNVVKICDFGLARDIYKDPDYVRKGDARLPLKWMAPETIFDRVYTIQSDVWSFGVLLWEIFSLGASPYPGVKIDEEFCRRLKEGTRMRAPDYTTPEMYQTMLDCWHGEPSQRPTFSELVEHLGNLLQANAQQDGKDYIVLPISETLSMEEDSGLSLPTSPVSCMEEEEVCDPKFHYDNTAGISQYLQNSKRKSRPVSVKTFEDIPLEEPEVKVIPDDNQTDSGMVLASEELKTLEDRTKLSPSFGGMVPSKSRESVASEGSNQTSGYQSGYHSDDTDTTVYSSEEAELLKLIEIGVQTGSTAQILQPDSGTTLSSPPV

COCCOCCOCCNC(=O)c1c(C)[nH]c(/C=C2\C(=O)Nc3ccc(F)cc32)c1C [mPEG3-semaxanib, (Z)-5-((5-fluoro-2-oxoindolin-3-ylidene)methyl)-2,4-dimethyl-1H-pyrrole-3-mPEG3-amide]
IC50 (c-Kit): 120 nM
c-Kit AVG % Activity at Specific Concentration (c-Kit; [1]): −1%
c-Kit AVG % Activity at Specific Concentration (c-Kit; [2]): 2%
c-Kit AVG % Activity at Specific Concentration (c-Kit; [3]): 58%
c-Kit AVG % Activity at Specific Concentration (c-Kit; [4]): 97%
c-Kit AVG % Activity at Specific Concentration (c-Kit; [5]): 104%
c-Kit AVG % Activity at Specific Concentration (c-Kit; [6]): 100%
c-Kit AVG % Activity at Specific Concentration (c-Kit; [7]): −1%
c-Kit AVG % Activity at Specific Concentration (c-Kit; [8]): 1%
c-Kit AVG % Activity at Specific Concentration (c-Kit; [9]): 16%
c-Kit AVG % Activity at Specific Concentration (c-Kit; [10]): 88%
c-Kit AVG % Activity at Specific Concentration (c-Kit; [11]): 98%
c-Kit AVG % Activity at Specific Concentration (c-Kit; [12]): 102%
c-Kit Fold (c-Kit): 1.60
IC50 (VEGFR-2): 110 nM
VEGFR-2 AVG % Activity at Specific Concentration (VEGFR-2; [1]): −3%
VEGFR-2 AVG % Activity at Specific Concentration (VEGFR-2; [2]): 0%
VEGFR-2 AVG % Activity at Specific Concentration (VEGFR-2; [3]): 47%
VEGFR-2 AVG % Activity at Specific Concentration (VEGFR-2; [4]): 90%
VEGFR-2 AVG % Activity at Specific Concentration (VEGFR-2; [5]): 87%
VEGFR-2 AVG % Activity at Specific Concentration (VEGFR-2; [6]): 93%
VEGFR-2 AVG % Activity at Specific Concentration (VEGFR-2; [7]): −6%
VEGFR-2 AVG % Activity at Specific Concentration (VEGFR-2; [8]): −3%
VEGFR-2 AVG % Activity at Specific Concentration (VEGFR-2; [9]): 16%
VEGFR-2 AVG % Activity at Specific Concentration (VEGFR-2; [10]): 78%
VEGFR-2 AVG % Activity at Specific Concentration (VEGFR-2; [11]): 90%
VEGFR-2 AVG % Activity at Specific Concentration (VEGFR-2; [12]): 93%
VEGFR-2 Fold (VEGFR-2; fold of IC50 relative to sunitinib): 2.24
IC50 (RET): 230 nM
RET AVG % Activity at Specific Concentration (RET; [1]): −1%
RET AVG % Activity at Specific Concentration (RET; [2]): 12%
RET AVG % Activity at Specific Concentration (RET; [3]): 68%
RET AVG % Activity at Specific Concentration (RET; [4]): 96%
RET AVG % Activity at Specific Concentration (RET; [5]): 92%
RET AVG % Activity at Specific Concentration (RET; [6]): 92%
RET AVG % Activity at Specific Concentration (RET; [7]): −1%
RET AVG % Activity at Specific Concentration (RET; [8]): 3%
RET AVG % Activity at Specific Concentration (RET; [9]): 38%
RET AVG % Activity at Specific Concentration (RET; [10]): 90%
RET AVG % Activity at Specific Concentration (RET; [11]): 95%
RET AVG % Activity at Specific Concentration (RET; [12]): 94%
RET Fold (RET): 5.35

COCCOCCOCCOCCOCCNC(=O)c1c(C)[nH]c(/C=C2\C(=O)Nc3ccc(F)cc32)c1C [mPEG5-semaxanib, (Z)-5-((5-fluoro-2-oxoindolin-3-ylidene)methyl)-2,4-dimethyl-1H-pyrrole-3-mPEG5-amide]
IC50 (c-Kit): 230 nM
c-Kit AVG % Activity at Specific Concentration (c-Kit; [1]): −1%
c-Kit AVG % Activity at Specific Concentration (c-Kit; [2]): 6%
c-Kit AVG % Activity at Specific Concentration (c-Kit; [3]): 76%
c-Kit AVG % Activity at Specific Concentration (c-Kit; [4]): 106%
c-Kit AVG % Activity at Specific Concentration (c-Kit; [5]): 100%
c-Kit AVG % Activity at Specific Concentration (c-Kit; [6]): 90%
c-Kit AVG % Activity at Specific Concentration (c-Kit; [7]): −1%
c-Kit AVG % Activity at Specific Concentration (c-Kit; [8]): 0%
c-Kit AVG % Activity at Specific Concentration (c-Kit; [9]): 37%
c-Kit AVG % Activity at Specific Concentration (c-Kit; [10]): 96%
c-Kit AVG % Activity at Specific Concentration (c-Kit; [11]): 99%
c-Kit AVG % Activity at Specific Concentration (c-Kit; [12]): 99%
c-Kit Fold (c-Kit): 3.10
IC50 (RET): 440 nM
RET AVG % Activity at Specific Concentration (RET; [1]): 0%
RET AVG % Activity at Specific Concentration (RET; [2]): 29%
RET AVG % Activity at Specific Concentration (RET; [3]): 84%
RET AVG % Activity at Specific Concentration (RET; [4]): 99%
RET AVG % Activity at Specific Concentration (RET; [5]): 98%
RET AVG % Activity at Specific Concentration (RET; [6]): 98%
RET AVG % Activity at Specific Concentration (RET; [7]): −1%
RET AVG % Activity at Specific Concentration (RET; [8]): 6%
RET AVG % Activity at Specific Concentration (RET; [9]): 59%
RET AVG % Activity at Specific Concentration (RET; [10]): 95%
RET AVG % Activity at Specific Concentration (RET; [11]): 102%
RET AVG % Activity at Specific Concentration (RET; [12]): 99%
RET Fold (RET): 10.23

COCCOCCOCCOCCOCCOCCNC(=O)c1c(C)[nH]c(/C=C2\C(=O)Nc3ccc(F)cc32)c1C [mPEG6-semaxanib, (Z)-5-((5-fluoro-2-oxoindolin-3-ylidene)methyl)-2,4-dimethyl-1H-pyrrole-3-mPEG6-amide]
IC50 (c-Kit): 290 nM
c-Kit AVG % Activity at Specific Concentration (c-Kit; [1]): −1%
c-Kit AVG % Activity at Specific Concentration (c-Kit; [2]): 8%
c-Kit AVG % Activity at Specific Concentration (c-Kit; [3]): 79%
c-Kit AVG % Activity at Specific Concentration (c-Kit; [4]): 94%
c-Kit AVG % Activity at Specific Concentration (c-Kit; [5]): 97%
c-Kit AVG % Activity at Specific Concentration (c-Kit; [6]): 91%
c-Kit AVG % Activity at Specific Concentration (c-Kit; [7]): −1%
c-Kit AVG % Activity at Specific Concentration (c-Kit; [8]): 0%
c-Kit AVG % Activity at Specific Concentration (c-Kit; [9]): 44%
c-Kit AVG % Activity at Specific Concentration (c-Kit; [10]): 95%
c-Kit AVG % Activity at Specific Concentration (c-Kit; [11]): 99%
c-Kit AVG % Activity at Specific Concentration (c-Kit; [12]): 87%
c-Kit Fold (c-Kit): 3.90
VEGFR-2 AVG % Activity at Specific Concentration (VEGFR-2): 96% and 93%
